Source: patent US9328090B2, “Arylethynyl derivatives” (Hoffmann-La Roche Inc., priority 2012, dated 2016)

Biological target: T1, human mGlu5a receptor (Homo sapiens, UniProt P41594)
T1 construct: expressed in transfected cells; host or cells: HEK-293 (monoclonal, stably transfected)
Experiment: Intracellular Ca2+ mobilization assay (mGlu5 PAM)
Type: cell-based
Conditions: for EC50: HEK-293 cells stably transfected with human mGlu5a, L-glutamate added at EC20; for Efficacy [%]: maximal response in % of the maximal stimulatory effect obtained with saturating L-glutamate
Method: A monoclonal HEK-293 cell line stably transfected with a cDNA encoding for the human mGlu5a receptor was generated; for the work with mGlu5 Positive Allosteric Modulators (PAMs), a cell line with low receptor expression levels and low constitutive receptor activity was selected to allow the differentiation of agonistic versus PAM activity. Cells were cultured according to standard protocols (Freshney, 2000) in Dulbecco's Modified Eagle Medium with high glucose supplemented with 1 mM glutamine, 10% (vol/vol) heat-inactivated bovine calf serum, Penicillin/Streptomycin, 50 μg/ml hygromycin and 15 μg/ml blasticidin (all cell culture reagents and antibiotics from Invitrogen, Basel, Switzerland).
About 24 hrs before an experiment, 5×10^4 cells/well were seeded in poly-D-lysine coated, black/clear-bottomed 96-well plates. The cells were loaded with 2.5 μM Fluo-4AM in loading buffer (1×HBSS, 20 mM HEPES) for 1 hr at 37° C. and washed five times with loading buffer. The cells were transferred into a Functional Drug Screening System 7000 (Hamamatsu, Paris, France), and 11 half logarithmic serial dilutions of test compound at 37° C. were added and the cells were incubated for 10-30 min. with on-line recording of fluorescence. Following this pre-incubation step, the agonist L-glutamate was added to the cells at a concentration corresponding to EC20 (typically around 80 μM) with on-line recording of fluorescence; in order to account for day-to-day variations in the responsiveness of cells, the EC20 of glutamate was determined immediately ahead of each experiment by recording of a full dose-response curve of glutamate.
Responses were measured as peak increase in fluorescence minus basal (i.e. fluorescence without addition of L-glutamate), normalized to the maximal stimulatory effect obtained with saturating concentrations of L-glutamate. Graphs were plotted with the % maximal stimulatory using XLfit, a curve fitting program that iteratively plots the data using Levenburg Marquardt algorithm. The single site competition analysis equation used was y=A+((B−A)/(1+((x/C)D))), where y is the % maximal stimulatory effect, A is the minimum y, B is the maximum y, C is the EC50, x is the log 10 of the concentration of the competing compound and D is the slope of the curve (the Hill Coefficient). From these curves the EC50 (concentration at which half maximal stimulation was achieved), the Hill coefficient as well as the maximal response in % of the maximal stimulatory effect obtained with saturating concentrations of L-glutamate were calculated.
A depression of the signal observed after addition of the EC20 concentration of L-glutamate was indicative of an inhibitory activity of the test compound.

T1 sequence (P41594 21-1180 isoform P41594-2 limits assumed): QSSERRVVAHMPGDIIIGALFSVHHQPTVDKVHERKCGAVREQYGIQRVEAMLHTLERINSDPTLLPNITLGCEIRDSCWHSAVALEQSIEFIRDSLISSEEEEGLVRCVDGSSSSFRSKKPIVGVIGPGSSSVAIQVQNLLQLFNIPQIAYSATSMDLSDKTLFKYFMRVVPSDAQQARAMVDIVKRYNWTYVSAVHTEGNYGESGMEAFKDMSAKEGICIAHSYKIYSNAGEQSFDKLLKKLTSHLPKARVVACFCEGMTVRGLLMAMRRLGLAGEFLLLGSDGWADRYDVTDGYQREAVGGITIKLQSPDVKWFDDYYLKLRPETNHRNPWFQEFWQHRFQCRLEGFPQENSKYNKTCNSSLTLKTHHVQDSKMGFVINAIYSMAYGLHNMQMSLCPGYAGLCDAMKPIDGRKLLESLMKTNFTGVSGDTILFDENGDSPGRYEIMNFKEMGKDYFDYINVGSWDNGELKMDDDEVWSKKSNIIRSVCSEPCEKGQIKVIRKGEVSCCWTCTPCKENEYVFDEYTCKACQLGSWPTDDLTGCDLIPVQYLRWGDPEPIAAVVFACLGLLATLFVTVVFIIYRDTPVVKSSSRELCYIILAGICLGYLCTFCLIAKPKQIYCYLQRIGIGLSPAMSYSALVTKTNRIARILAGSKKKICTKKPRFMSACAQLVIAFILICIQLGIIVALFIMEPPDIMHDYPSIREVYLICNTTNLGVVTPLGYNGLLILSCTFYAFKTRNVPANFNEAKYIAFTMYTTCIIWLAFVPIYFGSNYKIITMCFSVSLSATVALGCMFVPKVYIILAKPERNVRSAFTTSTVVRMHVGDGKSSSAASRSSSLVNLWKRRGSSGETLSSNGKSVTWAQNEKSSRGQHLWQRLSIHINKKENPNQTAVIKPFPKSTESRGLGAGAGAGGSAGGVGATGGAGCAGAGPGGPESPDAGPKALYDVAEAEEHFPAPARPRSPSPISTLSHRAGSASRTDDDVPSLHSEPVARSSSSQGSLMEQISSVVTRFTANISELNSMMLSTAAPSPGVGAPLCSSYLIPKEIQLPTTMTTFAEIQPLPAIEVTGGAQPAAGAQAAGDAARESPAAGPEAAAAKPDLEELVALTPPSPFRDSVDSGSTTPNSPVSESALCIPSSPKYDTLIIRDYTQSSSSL

| Compound | EC50 | Efficacy [%] |
| --- | --- | --- |
| O=C1C[C@H]2CCC[C@H]2N1c1ccc(C#Cc2ccccc2)cn1 [Example 1, (3aR,6aR)-1-(5-(phenylethynyl)pyridin-2-yl)hexahydrocyclopenta[b]pyrrol-2(1H)-one] | 10 nM | 45% |
| O=C1C[C@H]2CCC[C@H]2N1c1ccc(C#Cc2cccc(F)c2)cn1 [Example 2, (3aR,6aR)-1-(5-((3-Fluorophenyl)ethynyl)pyridin-2-yl)hexahydrocyclopenta[b]pyrrol-2(1H)-one] | 10 nM | 48% |
| O=C1C[C@H]2CCC[C@H]2N1c1ccc(C#Cc2ccc(F)cc2)cn1 [Example 3, (3aR,6aR)-1-(5-((4-Fluorophenyl)ethynyl)pyridin-2-yl)hexahydrocyclopenta[b]pyrrol-2(1H)-one] | 10 nM | 44% |
| O=C1C[C@H]2CCC[C@H]2N1c1ccc(C#Cc2cc(F)ccc2F)cn1 [Example 4, (3aR,6aR)-1-(5-((2,5-Difluorophenyl)ethynyl)pyridin-2-yl)hexahydrocyclopenta[b]pyrrol-2(1H)-one] | 8 nM | 19% |

Second part, the compound after the results:

| EC50 | Efficacy [%] | Compound |
| --- | --- | --- |
|  | 129% | CC1(C)CC(=O)N(c2ccc(C#Cc3ccccc3)cn2)C1 [Ref. 1 Ex. 13, reference compound] |
|  | 100% | CC1(C)CC(=O)N(c2ccc(C#Cc3cccc(F)c3)cn2)C1 [Ref. 1 Ex. 40, reference compound] |
|  | 81% | O=C1CC2(CCCC2)CN1c1ccc(C#Cc2ccccc2)cn1 [Ref. 1 Ex. 59, reference compound] |
